In US9394295B2, “Antibacterial homopiperidinyl substituted 3,4-dihydro-1H-[1,8]naphthyridinones” (Janssen Sciences Ireland UC, priority 2011, dated 2016):
Values after ≈ are worked out from the molar mass of the structure shown. Read-outs that look alike come from different tables or passages of the source.

Legend:
[1] = system: Staphylococcus aureus ATCC 29213; experiment: Antibacterial susceptibility testing: IC90 determination (STA); type: cell-based; conditions: ATCC29213, S. aureus ATCC 29213, 90% inhibitory concentration for bacterial growth, read-out: STA (361.159) IC90
Protocol: (§1) The following bacteria were used: Staphylococcus aureus ATCC 29213, methicillin-resistant Staphylococcus aureus (MRSA) ATCC 700788 and Escherichia coli ATCC 35218. The bacteria used in this study were grown overnight in flasks containing 100 ml Mueller-Hinton broth (Difco cat. nr. 0757-17) in sterile de-ionized water, with shaking, at 37° C. Stocks were store at −70° C. until use.
(§2) Bacteria were incubated on a tryptic soy agar plate containing 5% sheep blood (Becton Dickinson cat. nr. 254053) for 18-24 hours at 35° C. in aerobic conditions (first passage). For the second passage, fresh Mueller-Hinton broth is inoculated with 5-10 colonies and grown overnight at 35° C. until turbidity (reaching log-phase) in aerobic conditions is reached. The bacterial suspension is then adjusted to 0.5 McFarland density and further diluted 1:100 in Mueller Hinton broth medium. This is used as inoculum.
(§3) MIC assays were performed by the broth microdilution method in a 96-well format (flat-bottom microtitre plates) with a final volume of 0.1 ml Mueller Hinton broth containing two-fold serial dilutions of compounds and inoculated with 5×10^5 CFU/ml of bacteria (standard inoculum size according to CLSI guidelines). Inhibitors are typically varied over the range of 63 to 0.49 μM. The final DMSO concentration in the assay was 1.25% (maximum tolerable DMSO concentration=6%). In the assays where the effect of human serum on the activity of the compounds against S. aureus was tested, human serum was added at a final concentration of 10%. The plates were incubated at 35° C. for 16-20 hours. At the end of incubation the bacterial growth was quantified fluorometrically. For this, resazurin was added to all wells and the plates were re-incubated. The incubation time is dependent on the type of bacteria. A change in color from blue to pink indicated the growth of bacteria. The fluorescence was read in computer-controlled fluorometer (Fluoroskan Ascent FL, Labsystems) at an excitation wavelength 540 nm and an emission wavelength of 590 nm. The % growth inhibition achieved by the compounds was calculated according to standard methods. The IC90 (expressed in μg/ml) was defined as the 90% inhibitory concentration for bacterial growth. A panel of reference compounds were simultaneously tested for QC approval.

[2] = molecular target: T1, S. aureus ATCC 29213 FabI (Staphylococcus aureus, UniProt Q6GI75); experiment: Staphylococcus aureus FabI enzyme inhibition assay; type: biochemical; conditions: 30 minutes at room temperature, NADH consumption
T1 sequence (Q6GI75 1-256): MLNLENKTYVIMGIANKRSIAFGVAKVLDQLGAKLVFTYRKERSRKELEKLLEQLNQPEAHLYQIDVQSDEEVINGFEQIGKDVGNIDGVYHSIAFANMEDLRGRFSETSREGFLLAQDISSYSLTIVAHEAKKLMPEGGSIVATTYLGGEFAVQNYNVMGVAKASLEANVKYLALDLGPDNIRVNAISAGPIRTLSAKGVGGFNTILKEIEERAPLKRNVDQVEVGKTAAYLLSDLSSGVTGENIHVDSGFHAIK
Protocol: FabI enzyme inhibition assays were carried out in half-area, 384-well microtitre plates. Compounds were evaluated in 40-μl assay mixtures containing 100 mM NaADA, pH 6.5 (ADA=N-[2-acetamido]-2iminodiacetic acid), 250 μM crotonoyl-CoA, 625 μM NADH and 50 μg/ml S. aureus ATCC 29213 FabI Inhibitors were typically varied over the range of 50 to 0.39 μM. The reaction mixtures were incubated for 30 minutes at room temperature and the reaction was stopped by adding 200 mM Tris buffer (pH 9.0) to create a pH-shift. The consumption of NADH was monitored by measuring the change in absorbance at […]. By comparing sample readings to those of negative (absence of compound) and positive (absence of enzyme) controls, the percent inhibition of enzymatic activity of the compounds was determined. A best-fit curve is fitted by a minimum of squares method. From this an IC50-value (expressed in μg/ml), resulting in 50% inhibition of enzymatic activity, was obtained.

[3] = Cytotoxicity MTT assay (TOX HELAM); type: cell-based; conditions: human, HelaM cells, read-out: TOX HELAM (222.125) CC50
Protocol: Cytotoxicity of the compounds was evaluated using the MTT assay. Human HelaM cells grown in 96-well plates were exposed to serial dilutions of the tested compounds (final volume of 0.2 ml) and incubated for 72 hours at 37° C. and 5% CO2. Inhibitors are typically varied over the range of 25 to 0.8 μM. The final DMSO concentration in the assay is 0.5%. MTT (3-(4,5-Dimethylthiazol-2-yl)-2,5-diphenyltetrazolium bromide, a tetrazole) was added and reduced to purple formazan only in living cells. Solubilization of the formazan crystals was achieved by adding 100 μl 2-propanol. Cell viability was determined by measuring the absorbance of the reduced formazan, giving a purple color, at 540 nm and 690 nm. The absorbance measured at 690 nm was automatically subtracted from the absorbance at 540 nm, to eliminate the effects of non-specific absorption. The percent cytotoxicity achieved by the compounds was calculated according to standard methods. Cytotoxicity is reported as CC50, the concentration that causes a 50% reduction in cell viability.
The results are depicted in the table D2 below (TOX HELAM).

S. aureus = experiment: Antibacterial susceptibility testing: IC90 determination with 10% human serum (STA + 10% HS); type: cell-based; conditions: Staphylococcus aureus; S. aureus with human serum at final concentration of 10%; read-out: STA + 10% HS (361.169) IC90
Protocol: as §1, §2, §3
The results are depicted in the table D2 below (STA+10% HS).

[4] = In vivo pharmacokinetic and oral bioavailability; conditions: male Swiss mice; for half-life: read-out: Half life (t1/2) (converted)
Protocol: The in vivo pharmacokinetics and oral bioavailability of the compound of the examples was/is investigated in male Swiss mice (fed) following single intravenous (i.v.) bolus and oral (p.o.) administration. For the i.v. and p.o. solution formulations, the compound was/is dissolved in a 20% HP-β-CD solution. The pH of the formulations was/is around pH 4. All i.v. formulations were isotonic.

[5] = mouse, plasma, iv, i.v. 2.5 mg/kg
[6] = mouse, plasma, po, p.o. 10 mg/kg

IC90 [1] | IC50 [2] | IC90 (S. aureus) | Compound | CC50 at 72 h [3] | other results
0.33 µg/mL (≈ 0.822 µM) | 0.946 µM | 0.72 µg/mL | Cc1ccc(C)c(C2=CCCN(C(=O)/C=C/c3cnc4c(c3)CCC(=O)N4)CC2)c1 [Co. No. 17] | 4.11 µg/mL (≈ 10.2 µM) | 
4.66 µg/mL (≈ 12 µM) |  | 10.9 µg/mL | O=C1CCc2cc(/C=C/C(=O)N3CC=C(Cc4ccccc4)CCC3)cnc2N1 [Co. No. 5] | > 9.73 µg/mL | 
3.06 µg/mL (≈ 7.58 µM) | 2.13 µM | 5.83 µg/mL | COc1ccc(C2=CCN(C(=O)/C=C/c3cnc4c(c3)CCC(=O)N4)CCC2)cc1 [Co. No. 25] | > 10.1 µg/mL | 
0.78 µg/mL (≈ 1.93 µM) | 2.4 µM | 1.66 µg/mL | COc1cccc(C2=CCCN(C(=O)/C=C/c3cnc4c(c3)CCC(=O)N4)CC2)c1 [Co. No. 29] | > 10.6 µg/mL | 
3.42 µg/mL (≈ 9.11 µM) | 0.666 µM | 3.54 µg/mL | O=C1CCc2cc(/C=C/C(=O)N3CCCC(c4ccccc4)CC3)cnc2N1 (stereo not drawn) [Co. No. 4] | > 9.43 µg/mL | 
0.71 µg/mL (≈ 1.74 µM) | 1.25 µM | 4.37 µg/mL | O=C1CCc2cc(/C=C/C(=O)N3CC=C(c4cccc(Cl)c4)CCC3)cnc2N1 [Co. No. 12] | 8.23 µg/mL (≈ 20.2 µM) | 
1.46 µg/mL (≈ 3.62 µM) | 1.66 µM | 2.86 µg/mL | COc1ccc(C2=CCCN(C(=O)/C=C/c3cnc4c(c3)CCC(=O)N4)CC2)cc1 [Co. No. 26] | > 10.1 µg/mL | 
 | 0.964 µM |  | O=C1CCc2cc(/C=C/C(=O)N3CC=C(c4ccccc4)CCC3)cnc2N1 [compound 1] |  | 
0.63 µg/mL (≈ 1.54 µM) | 0.785 µM | 1.15 µg/mL | O=C1CCc2cc(/C=C/C(=O)N3CC=C(c4ccccc4Cl)CCC3)cnc2N1 [Co. No. 20] | 8.52 µg/mL (≈ 20.9 µM) | 
0.09 µg/mL (≈ 0.223 µM) | 0.867 µM | 0.2 µg/mL | COc1ccccc1C1=CCCN(C(=O)/C=C/c2cnc3c(c2)CCC(=O)N3)CC1 [Co. No. 10] | > 10.1 µg/mL | Vdz ([4]; i.v. 2.5 mg/kg): 2.0 L/kg; AUC(0-inf) [4, 5]: 2160 ng·h/mL; C0 ([4]; mouse, plasma, iv, i.v. 2.5 mg/kg, 20% HP-β-CD solution): 3400 ng/mL; half-life [4, 5]: 1.2 h; clearance ([4]; mouse, plasma, iv, i.v. 2.5 mg/kg, read-out: Plasma clearance Cl (converted)): 20 mL/min/kg; bioavailability ([4]; mouse, plasma, po, p.o. 10 mg/kg vs i.v. 2.5 mg/kg): 78%; AUC(0-inf) [4, 6]: 7090 ng·h/mL; Tmax [4, 6]: 0.5 h; Cmax ([4]; mouse, plasma, po, p.o. 10 mg/kg, 20% HP-β-CD solution): 3740 ng/mL; half-life [4, 6]: 2 h
0.69 µg/mL (≈ 1.78 µM) | 0.852 µM | 0.84 µg/mL | Cc1ccccc1C1=CCCN(C(=O)/C=C/c2cnc3c(c2)CCC(=O)N3)CC1 [Co. No. 8] | 9.3 µg/mL (≈ 24 µM) | 
< 0.2 µg/mL | 0.932 µM | 0.36 µg/mL | O=C1CCc2cc(/C=C/C(=O)N3CCC=C(c4ccccc4Cl)CC3)cnc2N1 [Co. No. 21] | 9.24 µg/mL (≈ 22.7 µM) | 
0.99 µg/mL (≈ 2.45 µM) | 0.967 µM | 1.48 µg/mL | COc1ccccc1C1=CCN(C(=O)/C=C/c2cnc3c(c2)CCC(=O)N3)CCC1 [Co. No. 9] | > 10.1 µg/mL | 
0.18 µg/mL (≈ 0.46 µM) | 1.07 µM | 0.35 µg/mL | O=C1CCc2cc(/C=C/C(=O)N3CCC=C(c4ccccc4F)CC3)cnc2N1 [Co. No. 23] | > 9.83 µg/mL | 
0.39 µg/mL (≈ 0.962 µM) | 0.789 µM | 1.02 µg/mL | Cc1ccc(F)cc1C1=CCCN(C(=O)/C=C/c2cnc3c(c2)CCC(=O)N3)CC1 [Co. No. 15] | 8.57 µg/mL (≈ 21.1 µM) | 
2.4 µg/mL (≈ 6.16 µM) | ~1.67 µM | 7.42 µg/mL | CC1(c2ccccc2)CCCN(C(=O)/C=C/c2cnc3c(c2)CCC(=O)N3)CC1 (stereo not drawn) [Co. No. 28] | > 9.78 µg/mL | 
21.4 µg/mL (≈ 61.7 µM) | 1.53 µM | 20.2 µg/mL | O=C1CCc2cc(/C=C/C(=O)N3CCc4ccccc4CC3)cnc2N1 [Co. No. 32] | > 8.73 µg/mL | 
0.59 µg/mL (≈ 1.51 µM) | 0.664 µM | 1.03 µg/mL | O=C1CCc2cc(/C=C/C(=O)N3CC=C(c4ccccc4F)CCC3)cnc2N1 [Co. No. 22] | 12.5 µg/mL (≈ 32 µM) | 
0.21 µg/mL (≈ 0.498 µM) | 1.61 µM | 0.26 µg/mL | COc1cccc(F)c1C1=CCCN(C(=O)/C=C/c2cnc3c(c2)CCC(=O)N3)CC1 [Co. No. 31] | > 10.6 µg/mL | 
3.21 µg/mL (≈ 7.96 µM) |  | 6.32 µg/mL | COc1cccc(C2=CCN(C(=O)/C=C/c3cnc4c(c3)CCC(=O)N4)CCC2)c1 [Co. No. 6] | > 10.1 µg/mL | 
 | 4.57 µM |  | O=C1CCc2cc(/C=C/C(=O)N3CCCC(n4cccn4)CC3)cnc2N1 (stereo not drawn) [compound 49] |  | 
3.94 µg/mL (≈ 10.1 µM) | 0.976 µM | 11.2 µg/mL | O=C1CCc2cc(/C=C/C(=O)N3CCCC(Cc4ccccc4)CC3)cnc2N1 (stereo not drawn) [Co. No. 3] | > 9.78 µg/mL | 
1.52 µg/mL (≈ 3.73 µM) | 1.42 µM | 5.08 µg/mL | O=C1CCc2cc(/C=C/C(=O)N3CC=C(c4ccc(Cl)cc4)CCC3)cnc2N1 [Co. No. 18] | 6.85 µg/mL (≈ 16.8 µM) | 
1.49 µg/mL (≈ 3.71 µM) | 0.946 µM | 3.01 µg/mL | Cc1ccc(C)c(C2=CCN(C(=O)/C=C/c3cnc4c(c3)CCC(=O)N4)CCC2)c1 [Co. No. 16] | 9.09 µg/mL (≈ 22.6 µM) | 
 | 2.18 µM |  | O=C1CCc2cc(/C=C/C(=O)N3CCCC(n4ccnn4)CC3)cnc2N1 (stereo not drawn) [compound 50] |  | 
1.47 µg/mL (≈ 3.79 µM) | 1.14 µM | 2.97 µg/mL | Cc1ccccc1C1=CCN(C(=O)/C=C/c2cnc3c(c2)CCC(=O)N3)CCC1 [Co. No. 7] | > 9.73 µg/mL | 
1.43 µg/mL (≈ 3.39 µM) | 1.38 µM | 3.05 µg/mL | COc1ccc(F)cc1C1=CCN(C(=O)/C=C/c2cnc3c(c2)CCC(=O)N3)CCC1 [Co. No. 13] | > 10.6 µg/mL | 
1.52 µg/mL (≈ 3.73 µM) | 1.91 µM | 6.17 µg/mL | O=C1CCc2cc(/C=C/C(=O)N3CCC=C(c4ccc(Cl)cc4)CC3)cnc2N1 [Co. No. 24] | 7.25 µg/mL (≈ 17.8 µM) | 
